Assay [1] has as its system S. aureus 101. The assay is described as follows: MIC determination. The assay is classed as cell-based, Staphylococcus aureus. An outline of the steps: (§1)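 K. pneumoniae and S. aureus grew in cation-adjusted Mueller-Hinton broth in ambient air. H. influenzae used Haemophilus test medium (MHB, yeast extract, NAD, hematin) and M. catarrhalis used Brain Heart Infusion, both under 5% CO2.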

The subject of assay [2] is S. pneumoniae 1/1. The assay is described as follows: MIC determination. In kind it is cell-based, Streptococcus pneumoniae. The conditions noted are these: Streptococcus pneumoniae, read-out: Minimum inhibitory concentrations (MIC).
Assay [3] concerns Haemophilus influenzae ATCC 49766. The assay is described as follows: MIC determination. The assay is classed as cell-based. The conditions noted are these: Haemophilus influenzae, read-out: Minimum inhibitory concentrations (MIC). An outline of the steps: as §1
The subject of assay [4] is Klebsiella pneumoniae ATCC 33495. Description: MIC determination. The assay is classed as cell-based. The conditions noted are these: Klebsiella pneumoniae, read-out: Minimum inhibitory concentrations (MIC). A digest of the protocol: as §1
The test system of assay [5] is Moraxella catarrhalis RA 21. The assay is described as follows: MIC determination. The conditions noted are these: Moraxella catarrhalis, read-out: Minimum inhibitory concentrations (MIC). The assay is classed as cell-based. An outline of the steps: as §1
Assay [6] deals with Staphylococcus aureus ATCC 25923. Description: MIC determination. In kind it is cell-based. The conditions noted are these: Staphylococcus aureus, read-out: Minimum inhibitory concentrations (MIC). An outline of the steps: as §1
In assay [7] the test system is Streptococcus pneumoniae ATCC 49619. Description: MIC determination. In kind it is cell-based. Conditions: Streptococcus pneumoniae, read-out: Minimum inhibitory concentrations (MIC).
For assay [8], the system named is Haemophilus influenzae ATCC 49766. The assay is described as follows: checkerboard synergy assay with iclaprim. The assay is classed as cell-based. Conditions: antibiotic in combination with iclaprim; H. influenzae 49766.
Assay [9] has as its system Klebsiella pneumoniae ATCC 33495. The assay is described as follows: checkerboard synergy assay with iclaprim. In kind it is cell-based. The conditions noted are these: antibiotic in combination with iclaprim; K. pneumoniae 33495.
Assay [10] concerns Moraxella catarrhalis RA 21. Description: checkerboard synergy assay with iclaprim. In kind it is cell-based. The conditions noted are these: antibiotic in combination with iclaprim; M. catarrhalis RA 21.
Assay [11] deals with Staphylococcus aureus ATCC 25923. Description: checkerboard synergy assay with iclaprim. Conditions: antibiotic in combination with iclaprim; S. aureus 25923. The assay is classed as cell-based.
Assay [12] deals with Streptococcus pneumoniae ATCC 49619. Description: checkerboard synergy assay with iclaprim. Conditions: antibiotic in combination with iclaprim; S. pneumoniae 49619. In kind it is cell-based.
Assay [13] deals with S. aureus 101. Description: checkerboard synergy assay with iclaprim. The assay is classed as cell-based, Staphylococcus aureus. Conditions: antibiotic in combination with iclaprim.
The test system of assay [14] is S. pneumoniae 1/1. The assay is described as follows: checkerboard synergy assay with iclaprim. The assay is classed as cell-based, Streptococcus pneumoniae. Conditions: antibiotic in combination with iclaprim.
The mark [15] stands for this setting: Staphylococcus aureus, 101, 18 h; read-out: Minimum inhibitory concentrations (MIC).
The mark [16] stands for this setting: S. pneumoniae 1/1, 18 hours at 37° C., 5% CO2.
The mark [17] stands for this setting: ATCC49766, H. Influenza 49766, 18 hours at 37° C., 5% CO2.
The mark [18] stands for this setting: ATCC33495, K. pneumonia 33495, 18 hours at 37° C.
[19] abbreviates: RA21, M. catarrhalis RA 21, 18 hours at 37° C., 5% CO2.
Setting [20] is: ATCC25923, S. aureus 25923, 18 hours at 37° C.
[21] abbreviates: ATCC49619, S. pneumoniae 49619, 18 hours at 37° C., 5% CO2.

The values that follow come from patent US20200038399A1, “FORMULATIONS, METHODS, KIT, AND DOSAGE FORMS FOR TREATING BACTERIAL INFECTION” (Motif BioSciences Inc., priority 2016, published 2020).

Like-named read-outs stand apart in the source and are kept apart here.

Take `CCN1CCN(C(=O)N[C@@H](C(=O)N[C@@H]2C(=O)N3[C@@H]2SC(C)(C)[C@@H]3C(=O)O)c2ccccc2)C(=O)C1=O` [Piperacillin]: the MIC is above 128 µg/mL with S. aureus 101 [1] (setting [15]); 8 µg/mL in the assay on S. pneumoniae 1/1 [2] (setting [16]); 0.031 µg/mL in assay [3] (setting [17]); 32 µg/mL in assay [4] (setting [18]); 0.25 µg/mL in [5] (setting [19]); 0.5 µg/mL in assay [6] (setting [20]). Besides, the MIC in assay [7] (setting [21]) was found to be 2 µg/mL. Moreover, the “Con (Conclusion)” value is on record as “Ad (Additivity (Ad))” in assay [8], “Ad (Additivity (Ad))” in assay [9] and “Ind (Indifference (Ind))” in [10]. Besides, the “Σ FIC” value in assay [8] is reported as 0.54-1.25; in assay [9], 0.53-1.25; in [10], 1.03-1.50; in [11] it was 1.06-1.50; in assay [12], 1.02-1.50; with S. aureus 101 [13], 1.01-1.50. Also, the “Σ FIC” value in the assay with S. pneumoniae 1/1 [14] was 0.63-1.13.

Regarding `COc1ccc(C[C@H](N)C(=O)N[C@H]2[C@@H](O)[C@H](n3cnc4c(N(C)C)ncnc43)O[C@@H]2CO)cc1` [Puromycin], the MIC is 16 µg/mL in the assay on S. aureus 101 [1] (setting [15]); 8 µg/mL in the assay with S. pneumoniae 1/1 [2] (setting [16]); 8 µg/mL in assay [3] (setting [17]); above 128 µg/mL in assay [4] (setting [18]); 4 µg/mL in assay [5] (setting [19]); 32 µg/mL in assay [6] (setting [20]). Moreover, in assay [7] (setting [21]), the MIC is 8 µg/mL. The “Con (Conclusion)” value in assay [8], in assay [9] and in assay [10] was “Ind (Indifference (Ind))” throughout. The “Σ FIC” value is reported as 1.06-1.50 in assay [8]; 1.01-1.50 in assay [9]; 1.06-1.50 in assay [10]; 1.06-1.50 in assay [11]; 0.63-1.25 in assay [12]; 1.13-1.50 with S. aureus 101 [13]. For the same compound, in the assay with S. pneumoniae 1/1 [14], the “Σ FIC” value is given as 1.13-1.50.

Regarding `CC[C@H]1OC(=O)[C@H](C)[C@@H](O[C@H]2C[C@@](C)(OC)[C@@H](O)[C@H](C)O2)[C@H](C)[C@@H](O[C@@H]2O[C@H](C)C[C@H](N(C)C)[C@H]2O)[C@](C)(O)C[C@@H](C)/C(=N\OCOCCOC)[C@H](C)[C@@H](O)[C@]1(C)O` [Roxithromycin], the MIC was above 128 µg/mL in the assay with S. aureus 101 [1] (setting [15]); 0.5 µg/mL in the assay with S. pneumoniae 1/1 [2] (setting [16]); 16 µg/mL in assay [3] (setting [17]); above 128 µg/mL in [4] (setting [18]); 0.25 µg/mL in assay [5] (setting [19]); 1 µg/mL in assay [6] (setting [20]). The MIC in assay [7] (setting [21]) came to 0.5 µg/mL. The “Con (Conclusion)” value in [8], in assay [9] and in [10] was “Ind (Indifference (Ind))” throughout. For the same compound, the “Σ FIC” value in [8] is on record as 1.03-1.50; in [9], 1.01-1.50; in assay [10] it was 1.03-1.50; in assay [11], 1.06-1.50; in assay [12] it was 1.02-1.50; with S. aureus 101 [13], 1.01-1.80. Besides, the “Σ FIC” value in the assay on S. pneumoniae 1/1 [14] is recorded as 0.75-1.13.

With `[H]/N=C(/N)N[C@H]1[C@H](O)[C@@H](O)[C@H](O[C@@H]2O[C@@H](C)[C@](O)(C=O)[C@H]2O[C@@H]2O[C@@H](CO)[C@H](O)[C@@H](O)[C@@H]2NC)[C@@H](N/C(N)=N\[H])[C@@H]1O` [Streptomycin], the MIC was 8 µg/mL with S. aureus 101 [1] (setting [15]); above 128 µg/mL in the assay with S. pneumoniae 1/1 [2] (setting [16]); 0.5 µg/mL in [3] (setting [17]); 64 µg/mL in [4] (setting [18]); 8 µg/mL in assay [5] (setting [19]); 4 µg/mL in assay [6] (setting [20]). Moreover, the MIC in assay [7] (setting [21]) was 32 µg/mL. The “Con (Conclusion)” value in [8] was “Ind (Indifference (Ind))”; in assay [9], “Ad (Additivity (Ad))”; in [10], “Ind (Indifference (Ind))”. The “Σ FIC” value in assay [8] is given as 1.02-1.50; in [9], 0.63-1.06; in assay [10], 1.06-1.50; in assay [11] it was 1.13-1.50; in assay [12], 1.00-1.25; in the assay on S. aureus 101 [13], 1.13-1.50. Besides, the “Σ FIC” value with S. pneumoniae 1/1 [14] is recorded as 1.01-1.50.

Take `CN(C)[C@@H]1C(O)=C(C(N)=O)C(=O)[C@@]2(O)C(O)=C3C(=O)c4c(O)cccc4[C@@](C)(O)[C@H]3C[C@@H]12` [Tetracycline, Tetracyclin]: the MIC in the assay on S. aureus 101 [1] (setting [15]) amounted to 128 µg/mL; in the assay on S. pneumoniae 1/1 [2] (setting [16]) it was 16 µg/mL; in [3] (ATCC49766, 18 h), 0.5 µg/mL; in assay [4] (setting [18]) it was 128 µg/mL; in assay [5] (setting [19]), 0.25 µg/mL; in assay [6] (setting [20]), 0.5 µg/mL. Besides, in [7] (setting [21]), the MIC is 0.25 µg/mL. The “Con (Conclusion)” value in assay [8] is listed as “Ad (Additivity (Ad))”; in [9] it was “Ad (Additivity (Ad))”; in assay [10], “Ind (Indifference (Ind))”. The “Σ FIC” value in assay [8] is reported as 0.56-1.25; in assay [9] it was 0.56-1.03; in [10], 1.13-1.50; in assay [11], 2.05-2.48; in [12], 0.75-1.25; in the assay with S. aureus 101 [13], 1.02-2.50. Moreover, the “Σ FIC” value in the assay with S. pneumoniae 1/1 [14] is on record as 0.75-1.13.

For `C=C(NC(=O)C(=C)NC(=O)c1csc(C2=N[C@@H]3c4csc(n4)[C@H]4NC(=O)c5csc(n5)[C@H]([C@](C)(O)[C@@H](C)O)NC(=O)[C@H]5CSC(=N5)/C(=C/C)NC(=O)[C@H]([C@@H](C)O)NC(=O)c5csc(n5)[C@]3(CC2)NC(=O)[C@H](C)NC(=O)C(=C)NC(=O)[C@H](C)NC(=O)[C@H]([C@@H](C)CC)N[C@@H]2C=Cc3c([C@H](C)O)cc(nc3[C@H]2O)C(=O)O[C@@H]4C)n1)C(N)=O` [Thiostrepton], the MIC with S. aureus 101 [1] (Staphylococcus aureus, 101, 18 h, read-out: Minimum inhibitory concentrations (MIC)) is 0.5 µg/mL; in the assay with S. pneumoniae 1/1 [2] (1/1, 18 h), 0.063 µg/mL; in assay [3] (ATCC49766, 18 h), 32 µg/mL; in assay [4] (ATCC33495, 18 h) it was above 128 µg/mL; in assay [5] (RA21, 18 h) it was 0.5 µg/mL; in assay [6] (ATCC25923, 18 h), 0.5 µg/mL. The MIC in assay [7] (ATCC49619, 18 h) was 0.063 µg/mL. Also, the “Con (Conclusion)” value in [8], in assay [9] and in assay [10] was “Ind (Indifference (Ind))” each time. The “Σ FIC” value in assay [8] was 1.02-1.50; in assay [9], 1.01-1.50; in [10], 1.02-1.50; in [11], 1.02-1.50; in assay [12], 1.12-1.50; with S. aureus 101 [13] it was 1.50-2.25. Also, the “Σ FIC” value in the assay with S. pneumoniae 1/1 [14] is on record as 1.12-1.50.

Consider `NC[C@H]1O[C@H](O[C@H]2[C@H](O)[C@@H](O[C@H]3O[C@H](CO)[C@@H](O)[C@H](N)[C@H]3O)[C@H](N)C[C@@H]2N)[C@H](N)C[C@@H]1O` [Tobramycin], for which the MIC in the assay with S. aureus 101 [1] (setting [15]) is above 128 µg/mL; in the assay with S. pneumoniae 1/1 [2] (setting [16]) it was 32 µg/mL; in [3] (setting [17]), 0.5 µg/mL; in assay [4] (setting [18]) it was 1 µg/mL; in [5] (setting [19]) it was 4 µg/mL; in [6] (setting [20]), 0.5 µg/mL. In addition, the MIC in [7] (setting [21]) was 32 µg/mL. The “Con (Conclusion)” value in [8] was “Ind (Indifference (Ind))”; in assay [9] it was “Ad (Additivity (Ad))”; in assay [10] it was “Ad (Additivity (Ad))”. Also, the “Σ FIC” value in assay [8] is 1.02-1.50; in assay [9] it was 0.52-1.13; in [10], 0.63-1.25; in [11] it was 0.99-1.25; in assay [12] it was 1.00-1.25; in the assay with S. aureus 101 [13], 1.01-1.50. Moreover, the “Σ FIC” value in the assay on S. pneumoniae 1/1 [14] was 0.63-1.13.
